Test results from US12404262B2 (priority 2021, dated 2025).
Values after ≈ are worked out from the molar mass of the structure shown.

Experiments:
[1] = 1.0% DMSO, 24-hour incubation at ambient temperature, maximum theoretical 100 μM; for pH 2 solubility: 0.1N HCl, first value of the cell; for pH 7 solubility: 1×PBS buffer (pH 7.4), second value of the cell
[2] = Solubility in simulated intestinal fluids (FaSSIF/FeSSIF); conditions: 25 °C, thermodynamic from solid
[3] = fasted state simulated intestinal fluid (FaSSIF), fassif
[4] = fed state simulated intestinal fluid (FeSSIF), fessif

SMILES | pH 2 solubility [1] | pH 7 solubility [1] | solubility [2, 3] | solubility [2, 4]
CC(C)(C#Cc1ccc(-c2ccc(Cl)c3c(N(C(=O)C(=O)O)S(C)(=O)=O)nn(CC(F)(F)F)c23)c([C@H](Cc2cc(F)cc(F)c2)NC(=O)Cn2nc(C(F)(F)F)c3c2C(F)(F)[C@@H]2C[C@H]32)n1)S(C)(=O)=O [Compound 16] | 1 μM | 92 μM | 710 µg/mL (≈ 682 µM) | 497 µg/mL (≈ 478 µM)
CC(C)(C#Cc1ccc(-c2ccc(Cl)c3c(N(COC(=O)C(=O)O)S(C)(=O)=O)nn(CC(F)(F)F)c23)c([C@H](Cc2cc(F)cc(F)c2)NC(=O)Cn2nc(C(F)(F)F)c3c2C(F)(F)[C@@H]2C[C@H]32)n1)S(C)(=O)=O [Compound 20, 2-((N-(4-chloro-7-(2-((S)-1-(2-((3bS,4aR)-5,5-difluoro-3-(trifluoromethyl)-3b,4,4a,5-tetrahydro-1H-cyclopropa[3,4]cyclopenta[1,2-c]pyrazol-1-yl)acetamido)-2-(3,5-difluorophenyl)ethyl)-6-(3-methyl-3-(methylsulfonyl)but-1-yn-1-yl)pyridin-3-yl)-1-(2,2,2-trifluoroethyl)-1H-indazol-3-yl)methylsulfonamido)methoxy)-2-oxoacetic acid] | 13 μM | 100 μM | 448 µg/mL (≈ 419 µM) | 454 µg/mL (≈ 424 µM)
C[C@@H](N)C(=O)OCN(c1nn(CC(F)(F)F)c2c(-c3ccc(C#CC(C)(C)S(C)(=O)=O)nc3[C@H](Cc3cc(F)cc(F)c3)NC(=O)Cn3nc(C(F)(F)F)c4c3C(F)(F)[C@@H]3C[C@H]43)ccc(Cl)c12)S(C)(=O)=O [Compound 26, (N-(4-chloro-7-(2-((S)-1-(2-((3bS,4aR)-5,5-difluoro-3-(trifluoromethyl)-3b,4,4a,5-tetrahydro-1H-cyclopropa[3,4]cyclopenta[1,2-c]pyrazol-1-yl)acetamido)-2-(3,5-difluorophenyl)ethyl)-6-(3-methyl-3-(methylsulfonyl)but-1-yn-1-yl)pyridin-3-yl)-1-(2,2,2-trifluoroethyl)-1H-indazol-3-yl)methylsulfonamido)methyl D-alaninate] | 23 μM | 2 μM | 13 µg/mL (≈ 12.2 µM) | 89 µg/mL (≈ 83.2 µM)
CC(C)(C#Cc1ccc(-c2ccc(Cl)c3c(N(COC(=O)CN)S(C)(=O)=O)nn(CC(F)(F)F)c23)c([C@H](Cc2cc(F)cc(F)c2)NC(=O)Cn2nc(C(F)(F)F)c3c2C(F)(F)[C@@H]2C[C@H]32)n1)S(C)(=O)=O [Compound 29, (N-(4-chloro-7-(2-((S)-1-(2-((3bS,4aR)-5,5-difluoro-3-(trifluoromethyl)-3b,4,4a,5-tetrahydro-1H-cyclopropa[3,4]cyclopenta[1,2-c]pyrazol-1-yl)acetamido)-2-(3,5-difluorophenyl)ethyl)-6-(3-methyl-3-(methylsulfonyl)but-1-yn-1-yl)pyridin-3-yl)-1-(2,2,2-trifluoroethyl)-1H-indazol-3-yl)methylsulfonamido)methyl glycinate] | 54 μM | 4 μM | 6 µg/mL (≈ 5.69 µM) | 120 µg/mL (≈ 114 µM)
CN(CC(=O)O)C(=O)N(c1nn(CC(F)(F)F)c2c(-c3ccc(C#CC(C)(C)S(C)(=O)=O)nc3[C@H](Cc3cc(F)cc(F)c3)NC(=O)Cn3nc(C(F)(F)F)c4c3C(F)(F)[C@@H]3C[C@H]43)ccc(Cl)c12)S(C)(=O)=O [Compound 44, N-((4-chloro-7-(2-((S)-1-(2-((3bS,4aR)-5,5-difluoro-3-(trifluoromethyl)-3b,4,4a,5-tetrahydro-1H-cyclopropa[3,4]cyclopenta[1,2-c]pyrazol-1-yl)acetamido)-2-(3,5-difluorophenyl)ethyl)-6-(3-methyl-3-(methylsulfonyl)but-1-yn-1-yl)pyridin-3-yl)-1-(2,2,2-trifluoroethyl)-1H-indazol-3-yl)(methylsulfonyl)carbamoyl)-N-methylglycine] | 1 μM | 9 μM | 10 µg/mL (≈ 9.23 µM) | 10 µg/mL (≈ 9.23 µM)
CN(CCC(=O)O)C(=O)N(c1nn(CC(F)(F)F)c2c(-c3ccc(C#CC(C)(C)S(C)(=O)=O)nc3[C@H](Cc3cc(F)cc(F)c3)NC(=O)Cn3nc(C(F)(F)F)c4c3C(F)(F)[C@@H]3C[C@H]43)ccc(Cl)c12)S(C)(=O)=O [Compound 45, 3-(3-(4-chloro-7-(2-((S)-1-(2-((3bS,4aR)-5,5-difluoro-3-(trifluoromethyl)-3b,4,4a,5-tetrahydro-1H-cyclopropa[3,4]cyclopenta[1,2-c]pyrazol-1-yl)acetamido)-2-(3,5-difluorophenyl)ethyl)-6-(3-methyl-3-(methylsulfonyl)but-1-yn-1-yl)pyridin-3-yl)-1-(2,2,2-trifluoroethyl)-1H-indazol-3-yl)-1-methyl-3-(methylsulfonyl)ureido)propanoic acid] | 1 μM | 20 μM | 14 µg/mL (≈ 12.8 µM) | 1 µg/mL (≈ 0.911 µM)
CN(CCCC(=O)O)C(=O)N(c1nn(CC(F)(F)F)c2c(-c3ccc(C#CC(C)(C)S(C)(=O)=O)nc3[C@H](Cc3cc(F)cc(F)c3)NC(=O)Cn3nc(C(F)(F)F)c4c3C(F)(F)[C@@H]3C[C@H]43)ccc(Cl)c12)S(C)(=O)=O [Compound 46, 4-(3-(4-chloro-7-(2-((S)-1-(2-((3bS,4aR)-5,5-difluoro-3-(trifluoromethyl)-3b,4,4a,5-tetrahydro-1H-cyclopropa[3,4]cyclopenta[1,2-c]pyrazol-1-yl)acetamido)-2-(3,5-difluorophenyl)ethyl)-6-(3-methyl-3-(methylsulfonyl)but-1-yn-1-yl)pyridin-3-yl)-1-(2,2,2-trifluoroethyl)-1H-indazol-3-yl)-1-methyl-3-(methylsulfonyl)ureido)butanoic acid] | 1 μM | 10 μM | 9 µg/mL (≈ 8.1 µM) | 3 µg/mL (≈ 2.7 µM)
CC(C)(C#Cc1ccc(-c2ccc(Cl)c3c(N(C(=O)NC(C(=O)O)C(=O)O)S(C)(=O)=O)nn(CC(F)(F)F)c23)c([C@H](Cc2cc(F)cc(F)c2)NC(=O)Cn2nc(C(F)(F)F)c3c2C(F)(F)[C@@H]2C[C@H]32)n1)S(C)(=O)=O [Compound 53, 2-(3-(4-chloro-7-(2-((S)-1-(2-((3bS,4aR)-5,5-difluoro-3-(trifluoromethyl)-3b,4,4a,5-tetrahydro-1H-cyclopropa[3,4]cyclopenta[1,2-c]pyrazol-1-yl)acetamido)-2-(3,5-difluorophenyl)ethyl)-6-(3-methyl-3-(methylsulfonyl)but-1-yn-1-yl)pyridin-3-yl)-1-(2,2,2-trifluoroethyl)-1H-indazol-3-yl)-3-(methylsulfonyl)ureido)malonic acid] | 1 μM | 62 μM | 758 µg/mL (≈ 681 µM) | 370 µg/mL (≈ 332 µM)
CC(C)(C#Cc1ccc(-c2ccc(Cl)c3c(N(C(=O)NC(CP(=O)(O)O)C(=O)O)S(C)(=O)=O)nn(CC(F)(F)F)c23)c([C@H](Cc2cc(F)cc(F)c2)NC(=O)Cn2nc(C(F)(F)F)c3c2C(F)(F)[C@@H]2C[C@H]32)n1)S(C)(=O)=O (stereo partly drawn) [Compound 56, 2-(3-(4-chloro-7-(2-((S)-1-(2-((3bS,4aR)-5,5-difluoro-3-(trifluoromethyl)-3b,4,4a,5-tetrahydro-1H-cyclopropa[3,4]cyclopenta[1,2-c]pyrazol-1-yl)acetamido)-2-(3,5-difluorophenyl)ethyl)-6-(3-methyl-3-(methylsulfonyl)but-1-yn-1-yl)pyridin-3-yl)-1-(2,2,2-trifluoroethyl)-1H-indazol-3-yl)-3-(methylsulfonyl)ureido)-3-phosphonopropanoic acid] | 3 μM | 42 μM | 1080 µg/mL (≈ 930 µM) | 1590 µg/mL (≈ 1370 µM)
CC(C)(C#Cc1ccc(-c2ccc(Cl)c3c(N(C(=O)N[C@@H](CO)C(=O)O)S(C)(=O)=O)nn(CC(F)(F)F)c23)c([C@H](Cc2cc(F)cc(F)c2)NC(=O)Cn2nc(C(F)(F)F)c3c2C(F)(F)[C@@H]2C[C@H]32)n1)S(C)(=O)=O [Compound 58, ((4-chloro-7-(2-((S)-1-(2-((3bS,4aR)-5,5-difluoro-3-(trifluoromethyl)-3b,4,4a,5-tetrahydro-1H-cyclopropa[3,4]cyclopenta[1,2-c]pyrazol-1-yl)acetamido)-2-(3,5-difluorophenyl)ethyl)-6-(3-methyl-3-(methylsulfonyl)but-1-yn-1-yl)pyridin-3-yl)-1-(2,2,2-trifluoroethyl)-1H-indazol-3-yl)(methylsulfonyl)carbamoyl)-L-serine] | 1 μM | 8 μM | 813 µg/mL (≈ 740 µM) | 120 µg/mL (≈ 109 µM)
CC(C)(C#Cc1ccc(-c2ccc(Cl)c3c(N(C(=O)NCCNC(=N)N)S(C)(=O)=O)nn(CC(F)(F)F)c23)c([C@H](Cc2cc(F)cc(F)c2)NC(=O)Cn2nc(C(F)(F)F)c3c2C(F)(F)[C@@H]2C[C@H]32)n1)S(C)(=O)=O [Compound 76] |  |  | 7 µg/mL (≈ 6.38 µM) | 68 µg/mL (≈ 62 µM)
CC(C)(C#Cc1ccc(-c2ccc(Cl)c3c(N(C(=O)OCCCN)S(C)(=O)=O)nn(CC(F)(F)F)c23)c([C@H](Cc2cc(F)cc(F)c2)NC(=O)Cn2nc(C(F)(F)F)c3c2C(F)(F)[C@@H]2C[C@H]32)n1)S(C)(=O)=O [Compound 129, 3-aminopropyl (4-chloro-7-(2-((S)-1-(2-((3bS,4aR)-5,5-difluoro-3-(trifluoromethyl)-3b,4,4a,5-tetrahydro-1H-cyclopropa[3,4]cyclopenta[1,2-c]pyrazol-1-yl)acetamido)-2-(3,5-difluorophenyl)ethyl)-6-(3-methyl-3-(methylsulfonyl)but-1-yn-1-yl)pyridin-3-yl)-1-(2,2,2-trifluoroethyl)-1H-indazol-3-yl)(methylsulfonyl)carbamate] | 54 μM | 7 μM |  | 
